# The source made the active and inactive calls. The rule behind the calls is not given here.
# Legend:
# [1] = biological target: T1, Phosphatidylinositol 4,5-bisphosphate 3-kinase catalytic subunit delta isoform (Homo sapiens, UniProt O00329); test: Inhibition of PI3Kdelta (unknown origin) using PIP2 as substrate after 2 hrs by ADP-Glo assay
# T1 sequence (O00329 whole entry): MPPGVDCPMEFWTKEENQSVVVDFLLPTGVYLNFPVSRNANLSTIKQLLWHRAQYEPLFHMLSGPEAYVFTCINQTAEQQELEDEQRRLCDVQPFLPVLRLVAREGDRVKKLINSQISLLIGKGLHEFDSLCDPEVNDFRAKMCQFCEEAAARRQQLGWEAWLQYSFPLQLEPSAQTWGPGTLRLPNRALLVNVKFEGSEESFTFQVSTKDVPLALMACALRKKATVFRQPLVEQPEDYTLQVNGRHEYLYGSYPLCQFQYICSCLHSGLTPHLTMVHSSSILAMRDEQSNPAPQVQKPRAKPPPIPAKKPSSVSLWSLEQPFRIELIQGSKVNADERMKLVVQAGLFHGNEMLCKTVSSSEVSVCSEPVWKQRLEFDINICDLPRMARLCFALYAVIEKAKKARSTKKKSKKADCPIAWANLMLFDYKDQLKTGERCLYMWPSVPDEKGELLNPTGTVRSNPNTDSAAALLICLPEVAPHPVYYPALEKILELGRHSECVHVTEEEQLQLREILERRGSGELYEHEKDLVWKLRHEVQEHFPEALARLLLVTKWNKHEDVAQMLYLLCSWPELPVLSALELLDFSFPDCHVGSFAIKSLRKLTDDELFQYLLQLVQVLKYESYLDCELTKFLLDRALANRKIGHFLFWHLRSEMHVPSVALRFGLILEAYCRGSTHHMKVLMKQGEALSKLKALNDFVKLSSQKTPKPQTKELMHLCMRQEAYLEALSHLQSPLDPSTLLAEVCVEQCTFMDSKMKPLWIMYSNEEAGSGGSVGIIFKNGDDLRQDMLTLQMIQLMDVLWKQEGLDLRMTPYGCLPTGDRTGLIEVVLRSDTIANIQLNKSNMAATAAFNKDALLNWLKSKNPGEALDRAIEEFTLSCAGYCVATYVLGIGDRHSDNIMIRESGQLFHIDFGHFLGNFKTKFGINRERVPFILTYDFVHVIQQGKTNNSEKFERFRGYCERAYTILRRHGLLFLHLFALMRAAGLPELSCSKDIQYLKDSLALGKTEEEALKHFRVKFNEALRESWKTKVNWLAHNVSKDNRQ
# SU-DHL-6 = test: Antiproliferative activity against human SU-DHL6 cells after 72 hrs by CellTiter-Glo luminescent cell viability assay; type: functional; settings: SU-DHL-6, 72 h
# [2] = rat, microsomes
# Description: Intrinsic clearance in liver by measuring in intrinsic clearance in rat liver microsomes in presence of NADPH by LC-MS/MS analysis
# [3] = human, microsomes
# Description: Intrinsic clearance in liver by measuring in intrinsic clearance in human liver microsomes in presence of NADPH by LC-MS/MS analysis
# in vitro [4] = settings: rat, liver microsomes
# Description: Metabolic stability in rat liver microsomes assessed as compound remaining after 60 mins in presence of NADPH by LC-MS/MS analysis
# in vitro [5] = settings: human, liver microsomes
# Description: Half life in human liver microsomes in presence of NADPH by LC-MS/MS analysis
# [6] = biological target: Phosphatidylinositol 4,5-bisphosphate 3-kinase catalytic subunit alpha isoform (Homo sapiens, UniProt P42336); test: Inhibition of PI3Kalpha (unknown origin) using PIP2 as substrate after 2 hrs by ADP-Glo assay
# [7] = biological target: T2, Phosphatidylinositol 4,5-bisphosphate 3-kinase catalytic subunit delta isoform (Homo sapiens) (UniProt O00329); test: Inhibition of PI3Kdelta in human SU-DHL6 cells assessed as reduction in S6K1 phosphorylation at T389 residue a at 100 nM after 2 hrs by Western blot analysis; type: cell-based
# T2 sequence (whole entry): T1 sequence (O00329 whole entry)
# in vitro [8] = settings: rat, liver microsomes; remark: listed apart in the source
# Description: Half life in rat liver microsomes in presence of NADPH by LC-MS/MS analysis
# in vitro [9] = settings: human, liver microsomes; remark: listed apart in the source
# Description: Intrinsic clearance in human liver microsomes assessed per mg protein in presence of NADPH by LC-MS/MS analysis
# [10] = AUC (0 to last) in Sprague-Dawley rat at 10 mg/kg, po administered via gavage by LC-MS/MS analysis; type: ADME, organism-based; set-up: dose 10 mg/kg, time 0 - last, route oral; settings: in vivo
# [11] = biological target: T2, Phosphatidylinositol 4,5-bisphosphate 3-kinase catalytic subunit delta isoform (Homo sapiens); test: Inhibition of PI3Kdelta in human SU-DHL6 cells assessed as reduction in Akt phosphorylation at S473 residue at 100 nM after 2 hrs by Western blot analysis; type: cell-based
# in vitro [12] = settings: human, liver microsomes; remark: listed apart in the source
# Description: Metabolic stability in human liver microsomes assessed as compound remaining after 60 mins in presence of NADPH by LC-MS/MS analysis
# in vitro [13] = settings: rat, liver microsomes; remark: listed apart in the source
# Description: Intrinsic clearance in rat liver microsomes assessed per mg protein in presence of NADPH by LC-MS/MS analysis
# [14] = biological target: Phosphatidylinositol 4,5-bisphosphate 3-kinase catalytic subunit beta isoform (Homo sapiens, UniProt P42338); test: Inhibition of PI3Kbeta (unknown origin) using PIP2 as substrate after 2 hrs by ADP-Glo assay
# [15] = Half life in Sprague-Dawley rat at 10 mg/kg, po administered via gavage by LC-MS/MS analysis; type: ADME, organism-based; settings: in vivo
# [16] = biological target: T2, Phosphatidylinositol 4,5-bisphosphate 3-kinase catalytic subunit delta isoform (Homo sapiens); test: Inhibition of PI3Kdelta in human SU-DHL6 cells assessed as reduction in S6K1 phosphorylation at T389 residue after 2 hrs by Western blot analysis; type: cell-based
# [17] = biological target: Phosphatidylinositol 4,5-bisphosphate 3-kinase catalytic subunit gamma isoform (Homo sapiens, UniProt P48736); test: Inhibition of PI3Kgamma (unknown origin) using PIP2 as substrate after 2 hrs by ADP-Glo assay
# [18] = biological target: T2, Phosphatidylinositol 4,5-bisphosphate 3-kinase catalytic subunit delta isoform (Homo sapiens); test: Inhibition of PI3Kdelta in human SU-DHL6 cells assessed as reduction in Akt phosphorylation at S473 residue after 2 hrs by Western blot analysis; type: cell-based
# Phosphatidylinositol 4,5-bisphosphate 3-kinase catalytic subunit alpha isoform, sequence (P42336 whole entry, canonical isoform): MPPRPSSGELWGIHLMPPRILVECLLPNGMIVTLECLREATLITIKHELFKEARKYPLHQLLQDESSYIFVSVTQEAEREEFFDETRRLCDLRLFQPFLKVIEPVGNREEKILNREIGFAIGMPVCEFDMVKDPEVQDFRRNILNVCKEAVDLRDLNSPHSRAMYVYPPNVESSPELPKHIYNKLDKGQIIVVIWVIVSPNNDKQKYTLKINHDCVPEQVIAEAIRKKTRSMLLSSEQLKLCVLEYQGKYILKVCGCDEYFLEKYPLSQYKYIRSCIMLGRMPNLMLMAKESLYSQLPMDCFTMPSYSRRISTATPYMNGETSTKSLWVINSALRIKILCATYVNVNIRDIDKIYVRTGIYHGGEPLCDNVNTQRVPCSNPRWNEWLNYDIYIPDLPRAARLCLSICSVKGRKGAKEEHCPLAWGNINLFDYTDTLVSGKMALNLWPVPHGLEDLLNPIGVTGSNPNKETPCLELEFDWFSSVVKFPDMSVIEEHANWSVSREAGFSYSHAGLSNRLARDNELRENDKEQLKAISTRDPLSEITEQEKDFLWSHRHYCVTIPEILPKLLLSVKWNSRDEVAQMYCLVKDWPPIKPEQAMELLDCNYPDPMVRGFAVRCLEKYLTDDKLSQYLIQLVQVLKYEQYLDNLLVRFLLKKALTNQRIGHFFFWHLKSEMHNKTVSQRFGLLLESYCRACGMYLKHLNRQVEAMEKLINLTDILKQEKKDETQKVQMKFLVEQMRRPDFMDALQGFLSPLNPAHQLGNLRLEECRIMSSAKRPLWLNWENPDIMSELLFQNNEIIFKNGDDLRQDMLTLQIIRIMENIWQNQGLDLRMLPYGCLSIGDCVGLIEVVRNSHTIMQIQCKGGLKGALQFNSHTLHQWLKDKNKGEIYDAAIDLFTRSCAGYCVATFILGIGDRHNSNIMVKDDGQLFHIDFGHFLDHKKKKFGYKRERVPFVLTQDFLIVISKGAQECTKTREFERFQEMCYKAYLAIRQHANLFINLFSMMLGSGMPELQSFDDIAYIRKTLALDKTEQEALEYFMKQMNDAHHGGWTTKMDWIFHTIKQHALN
# Phosphatidylinositol 4,5-bisphosphate 3-kinase catalytic subunit gamma isoform, sequence (P48736 whole entry, canonical isoform): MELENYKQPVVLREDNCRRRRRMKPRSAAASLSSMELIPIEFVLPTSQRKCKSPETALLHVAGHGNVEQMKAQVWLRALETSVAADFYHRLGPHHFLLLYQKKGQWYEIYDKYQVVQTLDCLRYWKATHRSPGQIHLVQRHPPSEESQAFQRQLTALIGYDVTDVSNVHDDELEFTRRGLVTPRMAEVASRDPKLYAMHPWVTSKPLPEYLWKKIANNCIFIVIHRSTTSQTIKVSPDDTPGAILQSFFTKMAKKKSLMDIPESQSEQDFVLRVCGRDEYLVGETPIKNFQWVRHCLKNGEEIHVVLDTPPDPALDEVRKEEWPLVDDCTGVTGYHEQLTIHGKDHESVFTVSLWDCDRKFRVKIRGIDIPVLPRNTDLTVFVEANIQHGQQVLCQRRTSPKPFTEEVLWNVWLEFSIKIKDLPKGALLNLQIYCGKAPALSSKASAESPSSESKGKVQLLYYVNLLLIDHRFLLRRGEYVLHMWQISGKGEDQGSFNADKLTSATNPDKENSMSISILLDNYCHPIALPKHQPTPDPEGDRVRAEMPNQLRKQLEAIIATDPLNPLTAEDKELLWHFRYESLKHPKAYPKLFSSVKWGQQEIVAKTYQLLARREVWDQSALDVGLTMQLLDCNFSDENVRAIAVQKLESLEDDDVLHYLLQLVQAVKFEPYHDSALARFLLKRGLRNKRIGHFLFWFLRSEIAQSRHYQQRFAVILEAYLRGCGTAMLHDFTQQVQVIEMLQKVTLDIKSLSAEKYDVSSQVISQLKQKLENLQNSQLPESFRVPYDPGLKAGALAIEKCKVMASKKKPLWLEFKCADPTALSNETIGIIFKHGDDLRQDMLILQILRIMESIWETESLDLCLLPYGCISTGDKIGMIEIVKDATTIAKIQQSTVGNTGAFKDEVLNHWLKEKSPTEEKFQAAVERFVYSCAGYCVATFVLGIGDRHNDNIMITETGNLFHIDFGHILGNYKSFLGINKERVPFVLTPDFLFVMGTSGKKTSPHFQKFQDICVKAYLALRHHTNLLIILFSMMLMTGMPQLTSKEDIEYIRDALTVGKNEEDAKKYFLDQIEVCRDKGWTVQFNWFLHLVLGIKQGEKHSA
# Phosphatidylinositol 4,5-bisphosphate 3-kinase catalytic subunit beta isoform, sequence (P42338 whole entry, canonical isoform): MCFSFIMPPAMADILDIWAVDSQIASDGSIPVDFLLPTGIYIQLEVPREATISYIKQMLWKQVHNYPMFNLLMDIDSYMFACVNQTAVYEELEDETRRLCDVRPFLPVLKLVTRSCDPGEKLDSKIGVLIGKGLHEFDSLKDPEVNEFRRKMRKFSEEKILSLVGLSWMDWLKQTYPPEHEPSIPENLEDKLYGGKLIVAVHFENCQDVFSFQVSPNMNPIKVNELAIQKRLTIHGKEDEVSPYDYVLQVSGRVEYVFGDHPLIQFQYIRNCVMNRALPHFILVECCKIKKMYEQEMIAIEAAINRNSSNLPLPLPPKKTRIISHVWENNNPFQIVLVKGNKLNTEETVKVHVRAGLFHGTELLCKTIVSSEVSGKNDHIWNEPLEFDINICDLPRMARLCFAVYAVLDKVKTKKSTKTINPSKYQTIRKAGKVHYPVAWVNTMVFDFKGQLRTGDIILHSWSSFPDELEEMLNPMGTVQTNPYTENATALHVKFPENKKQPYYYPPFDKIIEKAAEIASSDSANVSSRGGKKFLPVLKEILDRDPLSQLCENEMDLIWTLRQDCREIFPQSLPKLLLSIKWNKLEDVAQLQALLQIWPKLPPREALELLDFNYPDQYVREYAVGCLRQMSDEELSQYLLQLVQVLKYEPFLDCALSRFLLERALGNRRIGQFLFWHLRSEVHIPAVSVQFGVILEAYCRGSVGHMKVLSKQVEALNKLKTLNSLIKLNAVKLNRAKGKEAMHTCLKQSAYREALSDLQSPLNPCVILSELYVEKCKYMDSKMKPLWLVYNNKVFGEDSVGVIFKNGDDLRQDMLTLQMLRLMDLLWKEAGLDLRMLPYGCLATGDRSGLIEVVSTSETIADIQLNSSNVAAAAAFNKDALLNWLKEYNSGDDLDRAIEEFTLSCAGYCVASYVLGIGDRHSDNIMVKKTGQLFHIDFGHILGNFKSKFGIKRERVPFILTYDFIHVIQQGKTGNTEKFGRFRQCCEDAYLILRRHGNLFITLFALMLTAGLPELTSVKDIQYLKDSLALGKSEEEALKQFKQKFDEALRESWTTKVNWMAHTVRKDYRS
smiles,measurement,setting,value
O=c1c2c(F)cccc2nc([C@@H]2CCCN2c2nc(F)nc3[nH]cnc23)n1Cc1ccccc1,IC50,[1],91 nM
same,GI50,SU-DHL-6,380 nM
O=c1c2c(F)cccc2nc([C@@H]2CCCN2c2ncnc3[nH]cnc23)n1C1CCCCC1,IC50,[1],33 nM
same,GI50,SU-DHL-6,510 nM
CCCCn1c([C@@H]2CCCN2c2ncnc3[nH]cnc23)nc2cccc(F)c2c1=O,IC50,[1],42 nM
same,GI50,SU-DHL-6,640 nM
O=c1c2ccccc2nc([C@@H]2CCCN2c2ncnc3[nH]cnc23)n1Cc1ccccc1,IC50,[1],498 nM
same,GI50,SU-DHL-6,580 nM
O=c1c2c(F)cccc2nc([C@@H]2CCCN2c2ncnc3[nH]cnc23)n1C1CCCC1,IC50,[1],38 nM
same,GI50,SU-DHL-6,2650 nM
O=C(O)Cc1ccccc1Nc1c(Cl)cccc1Cl [DICLOFENAC],CLH,[2],0.143 mL/min/kg
CC[C@H](Nc1ncnc2[nH]cnc12)c1nc2cccc(F)c2c(=O)n1-c1ccccc1 [IDELALISIB],GI50,SU-DHL-6,20 nM
C[C@]12CC[C@H]3[C@@H](CCC4=CC(=O)CC[C@@]43C)[C@@H]1CC[C@@H]2O [TESTOSTERONE],CLH,[3],0.0911 mL/min/kg
same,CLH,[2],3.7756 mL/min/kg
O=c1c2c(F)cccc2nc([C@@H]2CCCN2c2ncnc3[nH]cnc23)n1Cc1ccccc1,IC50,[1],58 nM
same,GI50,SU-DHL-6,480 nM
N#Cc1c(N)ncnc1N1CCC[C@H]1c1nc2cccc(F)c2c(=O)n1C1CCCC1,remaining at 1 h,in vitro [4],6.2%
same,IC50,[1],6.3 nM
same,half-life,in vitro [5],17.5 min
same,IC50,[6],8590 nM
same,inhibition,[7],Active
same,half-life,in vitro [8],15.1 min
same,microsomal CLint,in vitro [9],79.2 µL/min/mg
same,AUC(0-t),[10],50.8 ng·h/mL
same,inhibition,[11],Active
same,remaining at 1 h,in vitro [12],9.1%
same,microsomal CLint,in vitro [13],91.7 µL/min/mg
same,CLH,[3],0.0713 mL/min/kg
same,IC50,[14],1550 nM
same,half-life,[15],246 min
same,GI50,SU-DHL-6,210 nM
same,inhibition,[16],Dose-dependent effect
same,CLH,[2],0.1651 mL/min/kg
same,IC50,[17],354 nM
same,inhibition,[18],Dose-dependent effect
N#Cc1c(N)ncnc1N1CCC[C@H]1c1nc2cccc(F)c2c(=O)n1Cc1ccccc1,remaining at 1 h,in vitro [4],0.1%
same,IC50,[1],22 nM
same,half-life,in vitro [5],31.1 min
same,IC50,[6],4940 nM
same,half-life,in vitro [8],1.6 min
same,microsomal CLint,in vitro [9],44.6 µL/min/mg
same,remaining at 1 h,in vitro [12],25.5%
same,microsomal CLint,in vitro [13],865 µL/min/mg
same,CLH,[3],0.0401 mL/min/kg
same,IC50,[14],6240 nM
same,GI50,SU-DHL-6,330 nM
same,CLH,[2],1.5571 mL/min/kg
same,IC50,[17],587 nM
O=c1c2c(F)cccc2nc([C@@H]2CCCN2c2nc(F)nc3[nH]cnc23)n1C1CCCC1,IC50,[1],178 nM
same,GI50,SU-DHL-6,1890 nM
O=c1c2c(F)cccc2nc([C@@H]2CCCN2c2ncnc3[nH]cnc23)n1C1CCC1,IC50,[1],635 nM
same,GI50,SU-DHL-6,630 nM
